pEC50: −log10 of the molar value. The source made the active and inactive calls. The calls are words filed in the database; no cut-off is given here.
What was measured:
Murid betaherpesvirus 1 = experiment: Antiviral activity against Murine cytomegalovirus infected in severe combined immunodeficient mouse assessed as reduction in viral load; assay type: functional
Human betaherpesvirus 5 [1] = experiment: Antiviral activity against Human cytomegalovirus infected in severe combined immunodeficient mouse with human fetal tissue implanted assessed as reduction in viral replication; assay type: functional, organism-based
Human betaherpesvirus 5 [2] = experiment: Antiviral activity against Human cytomegalovirus; assay type: functional, organism-based

Row | Structure (SMILES) | fold change (FC) (Murid betaherpesvirus 1) | Activity (Human betaherpesvirus 5 [1]) | pEC50 (Human betaherpesvirus 5 [2])
1 | Nc1nc2c(ncn2/C=C2/CC2(CO)CO)c(=O)[nH]1 [FILOCICLOVIR] | 2 | Active | 
2 | Nc1nc2c(ncn2COC(CO)CO)c(=O)[nH]1 [GANCICLOVIR] |  |  | 5.39
